Measured values as given in patent US9284345B2 (priority 2007, dated 2016).
Several values for one entry are separate records, joined by “and”; a condition that tells them apart may be missing. Identical values can stand only once. Like-named read-outs stand apart in the source and are kept apart here.

Experiments:
[1] = test system: Shionogi mouse mammary carcinoma cells; experiment: cells; assay type: cell-based; conditions: for inhibition at 0.0003 µM: Mus musculus, read-out: % of inh of DHT at 10^−7 M (Basal = 100%); for Ki: read-out: Shionogi cells Antiandrogenic activity Ki
Intact Rat = experiment: In vivo activity in intact rat (organ and muscle weight); conditions: for In Vivo Intact Rat % change vs Intact CONT (Intact CONT = +100%; CX CONT = 0%) Bulbo / In Vivo Intact Rat % change vs Intact CONT (Intact CONT = +100%; CX CONT = 0%) VP: 0.1 mg/rat/os/ID; for In Vivo Intact Rat % change vs Intact CONT (Intact CONT = +100%; CX CONT = 0%) Bulbo: bulbocavernosus muscles weight; for In Vivo Intact Rat % change vs Intact CONT (Intact CONT = +100%; CX CONT = 0%) VP: prostate weight
in vivo = conditions: male, Sprague-Dawley, rat, po
Human Androgen Receptor = target: T1, Human Androgen Receptor (Homo sapiens, UniProt P10275); assay type: binding
T1 construct: expressed in transfected cells; host or cells: HEK-293 cells stably transfected with the pCMVneo-hAR plasmid (G-418 selection); cytosol used
T1 sequence (P10275 1-920): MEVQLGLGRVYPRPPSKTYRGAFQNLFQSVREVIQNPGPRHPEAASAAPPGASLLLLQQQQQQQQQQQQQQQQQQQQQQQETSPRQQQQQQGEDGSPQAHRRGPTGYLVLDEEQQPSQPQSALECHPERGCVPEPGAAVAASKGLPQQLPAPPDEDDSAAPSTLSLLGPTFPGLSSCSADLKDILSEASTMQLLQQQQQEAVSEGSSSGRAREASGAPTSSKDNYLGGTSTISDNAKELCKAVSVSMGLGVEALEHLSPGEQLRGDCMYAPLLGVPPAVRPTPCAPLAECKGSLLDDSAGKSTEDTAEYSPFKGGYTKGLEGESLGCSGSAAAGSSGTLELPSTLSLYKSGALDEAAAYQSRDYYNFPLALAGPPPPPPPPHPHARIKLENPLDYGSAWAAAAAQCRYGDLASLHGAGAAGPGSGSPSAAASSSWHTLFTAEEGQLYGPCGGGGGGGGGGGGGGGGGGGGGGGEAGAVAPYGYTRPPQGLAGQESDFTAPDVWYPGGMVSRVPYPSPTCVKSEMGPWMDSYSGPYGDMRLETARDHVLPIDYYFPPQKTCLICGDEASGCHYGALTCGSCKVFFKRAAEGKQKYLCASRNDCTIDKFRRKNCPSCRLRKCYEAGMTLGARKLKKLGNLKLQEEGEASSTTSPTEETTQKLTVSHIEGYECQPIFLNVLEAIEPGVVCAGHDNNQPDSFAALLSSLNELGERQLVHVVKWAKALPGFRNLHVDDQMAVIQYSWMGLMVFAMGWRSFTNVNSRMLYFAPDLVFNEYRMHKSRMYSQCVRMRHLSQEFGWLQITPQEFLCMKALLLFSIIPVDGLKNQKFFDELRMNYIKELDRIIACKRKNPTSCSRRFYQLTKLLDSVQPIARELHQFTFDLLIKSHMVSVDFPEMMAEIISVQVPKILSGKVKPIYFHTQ

Immature Rat CX + DHT = experiment: animal or person; assay type: in vivo; conditions: for In Vivo Anti-A Rat CX + DHT % change vs DHT (CX CONT = −100%) Bulbo / In Vivo Anti-A Rat CX + DHT % change vs DHT (CX CONT = −100%) SV / In Vivo Anti-A Rat CX + DHT % change vs DHT (CX CONT = −100%) VP / change in vivo at 0.5 mg: po; for change in vivo at 0.5 mg: Rattus norvegicus, 168 h
[2] = test system: CX+ 4-DIONE in Mature Rat; experiment: Systemic antiandrogenic activity in mature male rats; assay type: in vivo
androgen receptor = experiment: Antiandrogen / SARM / androgen profile observed on structural change; conditions: structure-activity observation in estratriene derivatives
Source text: Preferred positions on the steroid to this change in activities are 3, 4, 11β, 16 and 17α. […] Moreover, when we changed the 4-fluoro by a 4-chloro on EM-6583, we obtained a pure androgen (EM-5697). Similarly, when we increased the size of the chain at 17α-position on (1,4-phenylene as a spacer group), EM-8419 became a SARM. Again, when we changed the 4-fluoro by a 4-chloro on EM-8419, we obtained a pure androgen (EM-5313).
We also believed that a larger size increase could reverse the observed tendency (androgen to SARM or antiandrogen). Thus, it is not obvious to make good predictions of the biological activity of this compound family but some trends are observable.

Rat Androgen Receptor = target: T2, Rat Androgen Receptor (Rattus norvegicus, UniProt P15207); experiment: Androgen receptor binding assay (HAP, [3H]R1881), rat prostate cytosol
T2 construct: ventral prostates collected from 24 h-gonadectomized rats were homogenized in buffer A; from tissue; host or cells: rat ventral prostate cytosol (24 h-gonadectomized rats)
T2 sequence (P15207 1-902): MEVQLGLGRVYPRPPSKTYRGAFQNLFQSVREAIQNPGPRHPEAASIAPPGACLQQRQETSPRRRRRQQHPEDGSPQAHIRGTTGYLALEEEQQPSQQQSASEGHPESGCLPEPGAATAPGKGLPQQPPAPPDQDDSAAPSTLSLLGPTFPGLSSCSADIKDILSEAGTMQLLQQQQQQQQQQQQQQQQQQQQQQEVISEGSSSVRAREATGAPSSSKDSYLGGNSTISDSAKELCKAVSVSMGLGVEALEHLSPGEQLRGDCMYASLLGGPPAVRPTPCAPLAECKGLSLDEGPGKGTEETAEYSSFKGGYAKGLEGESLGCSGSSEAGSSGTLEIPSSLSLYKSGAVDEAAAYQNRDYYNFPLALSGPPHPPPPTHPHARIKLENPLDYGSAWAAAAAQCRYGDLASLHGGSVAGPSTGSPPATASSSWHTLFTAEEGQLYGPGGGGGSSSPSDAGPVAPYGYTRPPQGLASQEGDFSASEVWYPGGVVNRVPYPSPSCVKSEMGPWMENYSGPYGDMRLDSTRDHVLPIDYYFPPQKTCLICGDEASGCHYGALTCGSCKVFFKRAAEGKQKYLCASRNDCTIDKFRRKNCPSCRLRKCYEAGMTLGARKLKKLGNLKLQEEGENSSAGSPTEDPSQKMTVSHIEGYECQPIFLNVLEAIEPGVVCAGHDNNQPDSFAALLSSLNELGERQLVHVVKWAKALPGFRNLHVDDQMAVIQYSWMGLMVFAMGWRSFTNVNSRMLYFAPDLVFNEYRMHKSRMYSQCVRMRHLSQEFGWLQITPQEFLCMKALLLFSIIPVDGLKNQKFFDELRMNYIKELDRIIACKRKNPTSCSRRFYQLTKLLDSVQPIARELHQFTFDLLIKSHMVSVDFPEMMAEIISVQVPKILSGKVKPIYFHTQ
Protocol: On the morning of the binding assay, ventral prostates collected from 24 h-gonadectomized rats were homogenized in buffer A (1 g of tissue in 5 mL) and the homogenate was centrifuged as described above.
Androgen binding is measured using the hydroxylapatite (HAP) assay. In brief, the radioactive steroid [^3H]R1881 solubilized in ethanol is diluted with buffer B (10 mM Tris-HCl, 1.5 mM EDTA disodium salt, 10 mM α-monothioglycerol, pH 7.4). Aliquots of the cell or prostate cytosol preparation (0.1 ml) are then incubated with 5 nM [^3H]R1881 (0.1 ml, ˜100 000 cpm) in the presence or absence of the indicated concentrations of unlabeled compounds (0.1 ml, prepared in buffer B containing 30% ethanol) for 16-18 h at 0-4° C. Triamcinolone acetonide (TAC; 100 nM) is added to mask progesterone receptors. Unbound steroids are separated by incubation for 40 min at 0-4° C. with 0.3 ml HAP prepared in buffer P (50 mM Tris-HCl, 10 mM KH2PO4, pH 7.4). After incubation with HAP and 10 min of centrifugation at 1000×g, the pellet is washed 3 times with 1 ml of buffer P. Thereafter, the radioactivity is extracted from the pellet by incubation at room temperature for 60 min with 1 ml of ethanol. After centrifugation, the supernatant is decanted into a scintillation vial and the pellet is extracted again with ethanol. After the addition of scintillation liquid, the radioactivity is measured in a liquid scintillation counter.

Compound	% of stim of basal at 10^−7M (% over basal) [1]	% of stim of basal at 10^−7 M (DHT = 100%) [1]	inhibition at 0.0003 µM [1] [%]	In Vivo Intact Rat % change vs Intact CONT (Intact CONT = +100%; CX CONT = 0%) Bulbo (Intact Rat)	In Vivo Intact Rat % change vs Intact CONT (Intact CONT = +100%; CX CONT = 0%) VP (Intact Rat)	In Vivo Intact Rat % change vs Intact CONT (Intact CONT = +100%; CX CONT = 0%) SZ (Intact Rat)	Human Androgen Receptor Binding RBA (%) R1881 = 100% (Human Androgen Receptor)	In Vivo Anti-A Rat CX + DHT % change vs DHT (CX CONT = −100%) SV (Immature Rat CX + DHT; rat, in vivo)	In Vivo Anti-A Rat CX + DHT % change vs DHT (CX CONT = −100%) VP (Immature Rat CX + DHT; rat, in vivo)	In Vivo Agonist Rat CX % change vs CX (DHT CONT = +100%) Bulbo (Immature Rat CX)	In Vivo Agonist Rat CX % change vs CX (DHT CONT = +100%) SV (Immature Rat CX)	In Vivo Agonist Rat CX % change vs CX (DHT CONT = +100%) VP (Immature Rat CX)	activity profile (antiandrogen, SARM or androgen) (androgen receptor)	Shionogi cells Antiandrogenic activity Ki OH-Flu/Ki compound [1]	Ki [1] [nM]	Rat Androgen Receptor Binding RBA (%) R1881 = 100% (Rat Androgen Receptor) [%]	also measured
C[C@@]1(Cc2ccc(C#N)cc2)CC2C3CCc4c(C#N)cccc4C3CC[C@]2(C)[C@H]1O (stereo partly shown) [EM-3585]	+279%	+63%	41	+263 ± 64%	+82 ± 17%	+114 ± 23%	55%	[−2 ± 15] %	[−26 ± 7] %	+74 ± 18%	+13 ± 4%	+20 ± 4%					AUC(0-t) (in vivo; plasma, 0.5 mg/animal): 2370 ± 253 ng·h/mL; In Vivo Anti-A Rat CX + DHT % change vs DHT (CX CONT = −100%) Bulbo (Immature Rat CX + DHT; rat, in vivo): [+67 ± 21] %
CC(O)(CS(=O)(=O)c1ccc(F)cc1)C(=O)Nc1ccc(C#N)c(C(F)(F)F)c1 (stereo not shown) [bicalutamide]																	AUC (in vivo; in vivo, 0.5 mg): 8500 ± 386 ng·h/mL; % change vs 4-DIONE Cont (CX Cont = −100% inh) Seminal Vesicles ([2]; 1 mg/rat/per os/ID): −82 ± 9%; % change vs 4-DIONE Cont (CX Cont = −100% inh) Ventral Prostate ([2]; 1 mg/rat/per os/ID): −44 ± 7%; inhibition of prostate weight (4-dione stimulated) ([2]; 5 mg/rat): 64%; % change vs 4-DIONE Cont (CX Cont = −100% inh) Seminal Vesicles ([2]; 5 mg/rat/per os/ID): −90 ± 6%; % change vs 4-DIONE Cont (CX Cont = −100% inh) Ventral Prostate ([2]; 5 mg/rat/per os/ID): −64 ± 4%; change in vivo at 0.5 mg (Immature Rat CX + DHT; read-out: In Vivo Antagonist % Change vs DHT (CX = −100%) SV): -86%; change in vivo at 0.5 mg (Immature Rat CX + DHT; read-out: In Vivo Antagonist % Change vs DHT (CX = −100%) VP): -51%; In Vivo Agonist % Change vs CX (DHT = +100%) SV (Immature Rat CX; sc): (0; 0.2 mg, sc) %; In Vivo Agonist % Change vs CX (DHT = +100%) VP (Immature Rat CX; sc): (0; 0.2 mg, sc) %
CC1CC2(C)C(CCC2(O)Cc2cc[n+]([O-])cc2)C2CCc3c(ccc(C#N)c3Cl)C12 (stereo not shown) [EM-5697]													pure androgen				
C[C@H]1C[C@@]2(C)C(CC[C@@]2(O)Cc2cc[n+]([O-])cc2)C2CCc3c(ccc(C#N)c3F)C21 (stereo partly shown) [EM-6583]	+138 ± 49%	+52 ± 27%	46	+145 ± 46%	+90 ± 2%	+71 ± 16%	21%	−75 ± 5%	−46 ± 6%	+93 ± 15%	+17 ± 3%	+37 ± 7%	became a SARM				
Cc1c(C#N)ccc2c1CCC1C2CCC2(C)C1CCC2(O)Cc1cc[n+]([O-])cc1 (stereo not shown) [EM-5985]							2.0 ± 0.3%							12 and 12 ± 4	0.9 ± 0.2	0.6	activity on the basal level of Shionogi cell proliferation [1]: none of these compounds has any activity; affinity for the human compared to the rat androgen receptor (Human Androgen Receptor): approximately 3 fold; inhibition of DHT-stimulated seminal vesicle weight (Immature Rat CX + DHT; rat, in vivo): 84%; inhibition of DHT-stimulated ventral prostate weight (Immature Rat CX + DHT; rat, in vivo): 69%; potency on rat androgen-sensitive parameters relative to currently available antiandrogens (Immature Rat CX + DHT; rat, in vivo): approximately 5 times; In Vivo Agonist % Change vs CX (DHT = +100%) SV (Immature Rat CX; po): [0] %; In Vivo Agonist % Change vs CX (DHT = +100%) VP (Immature Rat CX; po): [0] %
CC12CCC3c4ccc(C#N)c(F)c4CCC3C1CCC2(O)Cc1cc[n+]([O-])cc1F (stereo not shown) [EM-8454]							~1%							2.7	2.2	~0.3	In Vivo Agonist % Change vs CX (DHT = +100%) SV (Immature Rat CX; po): 0%; In Vivo Agonist % Change vs CX (DHT = +100%) VP (Immature Rat CX; po): 0%
Cc1c[n+]([O-])ccc1CC1(O)CCC2C3CCc4c(ccc(C#N)c4F)C3CCC21C (stereo not shown) [EM-8505]							~0.3%							4.4	4.2	~0.3	
CC[C@H]1C[C@@]2(C)C(CC[C@@]2(O)Cc2ccncc2F)C2CCc3c(ccc(C#N)c3F)C21 (stereo partly shown) [EM-9016]	+45%	+39%	46	+108 ± 21%	+53 ± 6%	+44 ± 6%	2250% and 2250 ± 570%	−39 ± 5%	−44 ± 3%	+66 ± 25%	+17 ± 1%	+13 ± 2%					In Vivo Anti-A Rat CX + DHT % change vs DHT (CX CONT = −100%) Bulbo (Immature Rat CX + DHT; rat, in vivo): +10 ± 9%
C[C@]12CCC3c4ccc(C#N)c(Cl)c4CCC3C1CC[C@@]2(O)Cc1ccc(-c2ccc[n+]([O-])c2)cc1 (stereo partly shown) [EM-5313]													pure androgen				
